Measurements: patent publication US20060041123A1, “Antibacterial agents” (priority 2002, published 2006)
Like-named read-outs stand apart in the source and are kept apart here.

Test: Antimicrobial activity assay: whole-cell MIC by broth microdilution (NCCLS M7-A6)
Type: cell-based
Experimental: Whole-cell antimicrobial activity was determined by broth microdilution using the National Committee for Clinical Laboratory Standards (NCCLS) recommended procedure, Document M7-A6, “Methods for Dilution Susceptibility Tests for Bacteria that Grow Aerobically”. The compounds were tested in serial two-fold dilutions ranging from 0.016 to 16 mcg/mL. Compounds were evaluated against a panel of Gram-positive organisms, including Staphylococcus aureus WCUH29, Streptococcus pneumoniae 1629, Streptococcus pyogenes CN 10, and Enterococcus faecalis 2. In addition, compounds were evaluated against a panel of Gram-negative strains including Haemophilus influenzae NEMC1, E. coli 7623, and Moraxella catarrhalis Ravasio. The minimum inhibitory concentration (MIC) was determined as the lowest concentration of compound that inhibited visible growth. A mirror reader was used to assist in determining the MIC endpoint.
Compounds of the present invention have MIC's ≦20 μg/ml versus all the organisms named above.

[1] = versus all the organisms named above (S. aureus WCUH29, S. pneumoniae 1629, S. pyogenes CN 10, E. faecalis 2, H. influenzae NEMC1, E. coli 7623, M. catarrhalis Ravasio), read-out: MIC

Compound: COc1ccc2ncc(F)c(CCN3CCC(NCc4ccc5c(c4)OCCO5)CC3)c2n1 [Example 157, N-(2,3-dihydro-1,4-benzodioxin-6-ylmethyl)-1-{2-[3-fluoro-6-(methoxy)-1,5-naphthyridin-4-yl]ethyl}-4-piperidinamine]
- MIC [1]: ≤ 2 µg/mL

Compound: COc1ccc2ncc(F)c(CCN3CCC(NCc4ccc5c(n4)NC(=O)CO5)CC3)c2n1.Cl.Cl [Example 55, 6-{[(1-{2-[3-fluoro-6-(methoxy)-1,5-naphthyridin-4-yl]ethyl}-4-piperidinyl)amino]methyl}-2H-pyrido[3,2-b][1,4]oxazin-3(4H)-one dihydrochloride]
- MIC [1]: ≤ 2 µg/mL

Compound: COc1ccc2ncc(F)c(CCN3CC[C@@H](NCc4ccc5c(n4)NC(=O)CS5)[C@@H](O)C3)c2n1.Cl.Cl (single isomer, unassigned; enantiomer 2) [Example 70]
- MIC: ≤ 2 µg/mL

Compound: COc1ccc2ncc(Cl)c(CCN3CC[C@H](NCc4ccc5c(n4)NC(=O)CS5)[C@H](O)C3)c2c1.Cl.Cl (single isomer, unassigned; enantiomer 1) [Example 7, 6-({(cis)-1-[2-(3-Chloro-6-methoxy-quinolin-4-yl)-ethyl]-3-hydroxy-piperidin-4-ylamino}-methyl)-4H-pyrido[3,2-b][1,4]thiazin-3-one Dihydrochloride Enantiomer 1]
- MIC [1]: ≤ 2 µg/mL

Compound: COc1cc(F)c2ncc(F)c(CCN3CC[C@H](NCc4cc5c(cn4)OCCO5)[C@H](O)C3)c2c1.Cl.Cl.Cl.Cl (single isomer, unassigned; enantiomer 1) [Example 74]
- MIC [1]: ≤ 2 µg/mL

Compound: COc1cc(F)c2ncc(F)c(CCN3CCC(NCc4cc5c(cn4)OCO5)CC3)c2c1.Cl.Cl [Example 51, 1-{2-[3,8-difluoro-6-(methoxy)-4-quinolinyl]ethyl}-N-([1,3]dioxolo[4,5-c]pyridin-6-ylmethyl)-4-piperidinamine dihydrochloride]
- MIC [1]: ≤ 2 µg/mL

Compound: COc1ccc2ncc(F)c(CCN3CCC(CO)(NCc4cc5c(cn4)OCCO5)CC3)c2c1.Cl.Cl [Example 92, (4[(2,3-dihydro[1,4]dioxino[2,3-c]pyridin-7-ylmethyl)amino]-1-{2-[3-fluoro-6-(methoxy)-4-quinolinyl]ethyl}-4-piperidinyl)methanol dihydrochloride]
- MIC [1]: ≤ 2 µg/mL

Compound: COc1ccc2ncc(Br)c(CCN3CCC(NCc4cc5c(cn4)OCCO5)CC3)c2c1.Cl.Cl [Example 44, {1-[2-(3-Bromo-6-methoxy-quinolin-4-yl)-ethyl]-piperidin-4-yl}-(2,3-dihydro-[1,4]dioxino[2,3-c]pyridin-7-ylmethyl)-amine Dihydrochloride]
- MIC [1]: ≤ 2 µg/mL

Compound: COc1c(F)ccc2ncc(Cl)c(CCN3CCC(NCc4cc5c(cn4)OCCO5)CC3)c12.Cl.Cl [Example 110, 1-{2-[3-chloro-6-fluoro-5-(methoxy)-4-quinolinyl]ethyl}-N-(2,3-dihydro[1,4]dioxino[2,3-c]pyridin-7-ylmethyl)-4-piperidinamine dihydrochloride]
- MIC [1]: ≤ 2 µg/mL

Compound: COc1ccc2ncc(F)c(CCN3CCC(NC(=O)c4ccc5c(n4)NC(=O)CS5)CC3)c2c1.Cl [Example 95, N-(1-{2-[3-fluoro-6-(methoxy)-4-quinolinyl]ethyl}-4-piperidinyl)3-oxo-3,4-dihydro-2H-pyrido[3,2-b][1,4]thiazine-6-carboxamide hydrochloride]
- MIC [1]: ≤ 2 µg/mL

Compound: COc1cc(F)c2ncc(F)c(CCN3CC[C@H](NCc4ccc5c(c4)OCCO5)[C@H](F)C3)c2c1.Cl.Cl (single isomer, unassigned; enantiomer 1) [Example 147, cis-1-{2-[3,8-difluoro-6-(methoxy)-4-quinolinyl]ethyl}-N-(2,3-dihydro-1,4-benzodioxin-6-ylmethyl)-3-fluoro-4-piperidinamine dihydrochloride, Enantiomer 1]
- MIC [1]: ≤ 2 µg/mL

Compound: COc1ccc2ncc(F)c(CCN3CC[C@H](NCc4cc5c(cn4)OCCO5)[C@H](O)C3)c2c1.Cl.Cl.Cl.Cl (single isomer, unassigned; enantiomer 1) [Example 34, cis-4-[(2,3-Dihydro-[1,4]dioxino[2,3-c]pyridin-7-ylmethyl)-amino]-1-[2-(3-fluoro-6-methoxy-quinolin-4-yl)-ethyl]-piperidin-3-ol dihydrochloride dihydrochloride Enantiomer 1]
- MIC [1]: ≤ 2 µg/mL

Compound: COc1ccc2ncc(F)c(CCN3CCC(NCc4cc5c(cn4)OCCS5)CC3)c2n1.Cl.Cl [Example 60, N-(2,3-Dihydro[1,4]oxathiino[2,3-c]pyridin-7-ylmethyl)-1-{2-[3-fluoro-6-(methoxy)-1,5-naphthyridin-4-yl]ethyl}-4-piperidinamine dihydrochloride]
- MIC [1]: ≤ 2 µg/mL

Compound: COc1ccc2ncc(F)c(CCN3CCC(NCc4cnc5c(c4)NC(=O)CS5)CC3)c2n1.Cl.Cl [Example 56, 7-{[(1-(2-[3-fluoro-6-(methoxy)-1,5-naphthyridin-4-yl]ethyl}-4-piperidinyl)amino]methyl}-1H-pyrido[2,3-b][1,4]thiazin-2(3H)-one dihydrochloride]
- MIC [1]: ≤ 2 µg/mL

Compound: COc1ccc2ncc(F)c(CCN3CCC(NCc4ccc5nsnc5c4)CC3)c2c1.Cl.Cl [Example 79, N-(2,1,3-benzothiadiazol-5-ylmethyl)-1-{2-[3-fluoro-6-(methoxy)-4-quinolinyl]ethyl}-4-piperidinamine dihydrochloride]
- MIC: ≤ 2 µg/mL

Compound: COc1ccc2ncc(F)c(CCN3CCC(NCc4ccc5c(n4)NC(=O)CS5)CC3)c2n1.Cl.Cl [Example 59, 6-{[(1-{2-[3-Fluoro-6-(methoxy)-1,5-naphthyridin-4-yl]ethyl}-4-piperidinyl)amino]methyl}-2H-pyrido[3,2-b][1,4]thiazin-3(4H)-one dihydrochloride]
- MIC [1]: ≤ 2 µg/mL

Compound: COc1c(F)ccc2ncc(Cl)c(CCN3CCC(NCc4ccc5c(n4)NC(=O)CS5)CC3)c12.Cl.Cl [Example 22, 6-({1-[2-(3-Chloro-6-fluoro-5-methoxy-quinolin-4-yl)-ethyl]-piperidin-4-ylamino}-methyl)-4H-pyrido[3,2-b][1,4]thiazin-3-one Dihydrochloride]
- MIC [1]: ≤ 2 µg/mL

Compound: COc1ccc2ncc(F)c(C(O)CN3CCC(NCc4cc5c(cn4)OCCO5)CC3)c2n1.Cl.Cl.O (single isomer, unassigned; enantiomer 2) [Example 100, 2-{4-[(2,3-Dihydro[1,4]dioxino[2,3-c]pyridin-7-ylmethyl)amino]-1-piperidinyl}-1-[3-fluoro-6-(methoxy)-1,5-naphthyridin-4-yl]ethanol Dihydrochloride Hydrate Enantiomer 2]
- MIC [1]: ≤ 2 µg/mL

Compound: COc1ccc2ncc(F)c(CCN3CC[C@H](NCc4cc5c(cn4)OCCO5)[C@H](O)C3)c2n1.Cl.Cl (single isomer, unassigned; enantiomer 1) [Example 66]
- MIC [1]: ≤ 2 µg/mL

Compound: COc1cc(F)c2ncc(F)c(CCN3CCC(NCc4cnc5c(c4)NC(=O)CS5)CC3)c2c1.Cl.Cl [Example 48, 7-{[(1-{2-[3,8-Difluoro-6-(methoxy)-4-quinolinyl]ethyl}-4-piperidinyl)amino]methyl}-1H-pyrido[2,3-b][1,4]thiazin-2(3H)-one dihydrochloride]
- MIC [1]: ≤ 2 µg/mL

Compound: COc1ccc2ncc(F)c(CCN3CCC(C)(NC(=O)c4ccc5c(n4)NC(=O)CO5)CC3)c2n1 [Example 167, N-(1-{2-[3-fluoro-6-(methoxy)-1,5-naphthyridin-4-yl]ethyl}-4-methyl-4-piperidinyl)-3-oxo-3,4-dihydro-2H-pyrido[3,2-b][1,4]oxazine-6-carboxamide]
- MIC [1]: ≤ 2 µg/mL

Compound: COc1ccc2ncc(F)c(CCN3CCC(NCc4ccc5c(n4)NCCS5)CC3)c2c1.Cl.Cl [Example 81, N-(3,4-dihydro-2H-pyrido[3,2-b][1,4]thiazin-6-ylmethyl)-1-{2-[3-fluoro-6-(methoxy)-4-quinolinyl]ethyl}-4-piperidinamine dihydrochloride]
- MIC: ≤ 2 µg/mL

Compound: COc1ccc2ncc(Cl)c(CCN3CCC(NCc4cc5c(cn4)OCCO5)CC3)c2c1.Cl.Cl [Example 4, {1-[2-(3-Chloro-6-methoxy-quinolin-4-yl)-ethyl]-piperidin-4-yl}-(2,3-dihydro-[1,4]dioxino[2,3-c]pyridin-7-ylmethyl)-amine Dihydrochloride]
- MIC [1]: ≤ 2 µg/mL

Compound: COc1ccc2ncc(F)c(CCN3CCC(NCc4cc5c(cn4)SCCN5)CC3)c2n1.Cl.Cl [Example 54, N-(2,3-Dihydro-1H-pyrido[3,4-b][1,4]thiazin-7-ylmethyl)-1-{2-[3-fluoro-6-(methoxy)-1,5-naphthyridin-4-yl]ethyl}-4-piperidinamine dihydrochloride]
- MIC [1]: ≤ 2 µg/mL

Compound: COc1cc(F)c2ncc(Cl)c(CCN3CC[C@H](NCc4ccc5c(n4)NC(=O)CS5)[C@H](F)C3)c2c1.Cl.Cl (single isomer, unassigned; enantiomer 1) [Example 142, cis-6-{[(1-{2-[3-chloro-8-fluoro-6-(methoxy)-4-quinolinyl]ethyl}-3-fluoro-4-piperidinyl)amino]methyl}-2H-pyrido[3,2-b][1,4]thiazin-3(4H)-one dihydrochloride Enantiomer 1]
- MIC [1]: ≤ 2 µg/mL

Compound: COc1ccc2ncc(F)c(CCN3CCC(NC(=O)c4nc5c(cc4F)SCC(=O)N5)CC3)c2n1.Cl.Cl [Example 62, 7-Fluoro-N-(1-{2-[3-fluoro-6-(methoxy)-1,5-naphthyridin-4-yl]ethyl}-4-piperidinyl)-3-oxo-3,4-dihydro-2H-pyrido[3,2-b][1,4]thiazine-6-carboxamide dihydrochloride]
- MIC [1]: ≤ 2 µg/mL

Compound: Cl.Cl.Fc1ccc2ncc(Cl)c(CCN3CCC(NCc4cc5c(cn4)OCCO5)CC3)c2c1 [Example 26, {1-[2-(3-Chloro-6-fluoro-quinolin-4-yl)-ethyl]-piperidin-4-yl}(2,3-dihydro[1,4]dioxino[2,3-c]pyridin-7-ylmethyl)-amine Dihydrochloride]
- MIC [1]: ≤ 2 µg/mL
